The source of these data is ChEMBL document CHEMBL5291721, “A preclinical secondary pharmacology resource illuminates target-adverse drug reaction associations of marketed drugs” (Nat Commun, 2023).

Among the targets are Melanocortin receptor 4 (Homo sapiens, UniProt P32245); Mu-type opioid receptor (Homo sapiens, UniProt P35372); D(1A) dopamine receptor (Homo sapiens, UniProt P21728).
The target in assay [1] is 5-hydroxytryptamine receptor 2A (Homo sapiens, UniProt P28223).
Assay [2] has as its target T1, Alpha-1A adrenergic receptor (Homo sapiens, UniProt P35348).
T1 sequence (P35348 whole entry): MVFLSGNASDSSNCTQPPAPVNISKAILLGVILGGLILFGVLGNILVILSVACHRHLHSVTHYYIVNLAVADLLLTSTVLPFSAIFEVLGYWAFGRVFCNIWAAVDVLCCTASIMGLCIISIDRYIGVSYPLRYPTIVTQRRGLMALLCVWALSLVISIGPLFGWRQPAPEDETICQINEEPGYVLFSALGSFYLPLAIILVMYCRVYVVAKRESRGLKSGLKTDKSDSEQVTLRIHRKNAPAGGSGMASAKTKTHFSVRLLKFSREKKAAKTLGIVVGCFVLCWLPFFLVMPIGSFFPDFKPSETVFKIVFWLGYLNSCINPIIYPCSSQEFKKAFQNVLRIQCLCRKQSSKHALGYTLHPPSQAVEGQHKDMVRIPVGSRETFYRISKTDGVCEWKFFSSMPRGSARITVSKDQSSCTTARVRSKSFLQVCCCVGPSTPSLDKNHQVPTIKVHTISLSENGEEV

The target in assay [3] is T1, Alpha-1A adrenergic receptor. It is filed as functional, cell-based.
In assay [4] the target is T2, Androgen receptor (Rattus norvegicus, UniProt P15207).
T2 sequence (P15207 whole entry): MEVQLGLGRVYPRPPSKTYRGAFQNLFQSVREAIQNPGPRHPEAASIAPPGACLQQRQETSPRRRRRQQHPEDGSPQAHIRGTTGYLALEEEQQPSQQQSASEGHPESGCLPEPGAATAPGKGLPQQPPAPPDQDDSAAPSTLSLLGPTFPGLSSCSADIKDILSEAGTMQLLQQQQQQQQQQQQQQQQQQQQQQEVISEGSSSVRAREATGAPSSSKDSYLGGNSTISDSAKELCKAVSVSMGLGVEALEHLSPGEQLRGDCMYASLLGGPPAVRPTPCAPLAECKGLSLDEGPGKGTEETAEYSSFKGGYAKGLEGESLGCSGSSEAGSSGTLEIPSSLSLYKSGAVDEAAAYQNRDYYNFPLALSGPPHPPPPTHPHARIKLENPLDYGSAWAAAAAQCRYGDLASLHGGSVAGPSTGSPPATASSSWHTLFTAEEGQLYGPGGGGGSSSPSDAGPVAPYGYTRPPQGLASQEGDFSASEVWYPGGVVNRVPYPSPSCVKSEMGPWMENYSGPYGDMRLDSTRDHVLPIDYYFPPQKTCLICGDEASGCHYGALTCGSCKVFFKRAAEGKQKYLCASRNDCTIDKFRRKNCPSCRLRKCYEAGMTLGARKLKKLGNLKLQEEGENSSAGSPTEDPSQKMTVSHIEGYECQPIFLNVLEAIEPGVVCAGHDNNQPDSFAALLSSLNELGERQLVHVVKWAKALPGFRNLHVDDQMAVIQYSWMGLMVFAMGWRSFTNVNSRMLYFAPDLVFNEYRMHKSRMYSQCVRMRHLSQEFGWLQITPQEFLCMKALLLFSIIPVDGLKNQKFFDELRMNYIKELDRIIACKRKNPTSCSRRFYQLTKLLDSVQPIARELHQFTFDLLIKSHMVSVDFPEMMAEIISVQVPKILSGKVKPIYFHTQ
It is filed as functional.

Assay [5] addresses T2, Androgen receptor. The format is functional. The source holds these as a separate data set.
Assay [6] has as its target T3, Alpha-2A adrenergic receptor (Homo sapiens, UniProt P08913).
T3 sequence (P08913 whole entry): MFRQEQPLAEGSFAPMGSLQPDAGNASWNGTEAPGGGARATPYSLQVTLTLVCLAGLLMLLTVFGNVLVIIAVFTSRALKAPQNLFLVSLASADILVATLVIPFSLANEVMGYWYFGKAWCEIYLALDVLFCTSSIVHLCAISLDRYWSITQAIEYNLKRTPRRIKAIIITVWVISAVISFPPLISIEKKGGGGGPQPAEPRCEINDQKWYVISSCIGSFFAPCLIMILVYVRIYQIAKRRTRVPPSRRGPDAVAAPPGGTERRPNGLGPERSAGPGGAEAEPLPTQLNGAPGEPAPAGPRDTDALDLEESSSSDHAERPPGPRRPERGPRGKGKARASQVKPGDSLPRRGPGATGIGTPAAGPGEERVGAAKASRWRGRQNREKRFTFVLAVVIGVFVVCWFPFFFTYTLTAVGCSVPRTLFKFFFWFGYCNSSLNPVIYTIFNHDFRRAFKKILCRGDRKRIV

In assay [7] the target is 5-hydroxytryptamine receptor 2B (Homo sapiens, UniProt P41595).
Chain of 5-hydroxytryptamine receptor 2B (P41595 whole entry): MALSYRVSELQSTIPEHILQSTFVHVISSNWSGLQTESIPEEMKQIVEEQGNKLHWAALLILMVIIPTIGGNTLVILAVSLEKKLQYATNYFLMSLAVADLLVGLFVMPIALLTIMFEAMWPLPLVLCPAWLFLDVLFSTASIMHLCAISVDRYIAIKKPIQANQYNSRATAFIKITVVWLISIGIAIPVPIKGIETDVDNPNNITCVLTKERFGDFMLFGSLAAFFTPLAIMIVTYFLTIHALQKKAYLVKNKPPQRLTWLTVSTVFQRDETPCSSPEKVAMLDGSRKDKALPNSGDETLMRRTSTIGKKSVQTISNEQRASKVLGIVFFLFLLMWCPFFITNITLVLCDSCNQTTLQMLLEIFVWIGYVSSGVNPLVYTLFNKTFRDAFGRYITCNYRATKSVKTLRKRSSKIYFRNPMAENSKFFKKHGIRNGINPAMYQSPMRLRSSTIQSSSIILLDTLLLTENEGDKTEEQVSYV
For assay [8], the target named is T4, 5-hydroxytryptamine receptor 1A (Homo sapiens, UniProt P08908).
T4 sequence (P08908 whole entry): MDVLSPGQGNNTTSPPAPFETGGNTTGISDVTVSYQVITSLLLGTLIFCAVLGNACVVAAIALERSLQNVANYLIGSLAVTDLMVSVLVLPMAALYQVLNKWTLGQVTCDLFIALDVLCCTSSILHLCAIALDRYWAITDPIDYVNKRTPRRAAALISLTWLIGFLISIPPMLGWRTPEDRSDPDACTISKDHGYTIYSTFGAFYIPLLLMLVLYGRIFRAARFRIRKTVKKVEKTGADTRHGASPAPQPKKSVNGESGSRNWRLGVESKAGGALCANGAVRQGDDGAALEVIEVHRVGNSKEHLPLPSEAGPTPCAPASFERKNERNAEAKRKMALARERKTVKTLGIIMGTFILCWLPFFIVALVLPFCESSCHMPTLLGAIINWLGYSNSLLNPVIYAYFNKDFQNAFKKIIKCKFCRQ

The structures appear in SMILES notation.
Note: assay procedure not described here.

Chain of 5-hydroxytryptamine receptor 2A (P28223 whole entry): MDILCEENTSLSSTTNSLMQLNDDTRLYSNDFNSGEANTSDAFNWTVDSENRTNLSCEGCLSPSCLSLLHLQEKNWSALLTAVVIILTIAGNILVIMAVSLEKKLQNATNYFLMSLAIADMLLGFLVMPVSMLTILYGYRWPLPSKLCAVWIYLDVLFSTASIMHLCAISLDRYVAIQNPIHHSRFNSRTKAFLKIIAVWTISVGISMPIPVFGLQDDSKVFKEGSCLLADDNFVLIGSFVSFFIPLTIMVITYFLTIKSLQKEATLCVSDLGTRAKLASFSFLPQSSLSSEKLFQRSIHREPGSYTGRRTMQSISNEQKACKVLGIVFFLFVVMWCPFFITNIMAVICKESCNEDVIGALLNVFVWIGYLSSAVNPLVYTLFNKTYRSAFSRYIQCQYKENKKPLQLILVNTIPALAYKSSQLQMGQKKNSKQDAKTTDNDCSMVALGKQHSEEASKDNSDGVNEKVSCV
Chain of Melanocortin receptor 4 (P32245 whole entry): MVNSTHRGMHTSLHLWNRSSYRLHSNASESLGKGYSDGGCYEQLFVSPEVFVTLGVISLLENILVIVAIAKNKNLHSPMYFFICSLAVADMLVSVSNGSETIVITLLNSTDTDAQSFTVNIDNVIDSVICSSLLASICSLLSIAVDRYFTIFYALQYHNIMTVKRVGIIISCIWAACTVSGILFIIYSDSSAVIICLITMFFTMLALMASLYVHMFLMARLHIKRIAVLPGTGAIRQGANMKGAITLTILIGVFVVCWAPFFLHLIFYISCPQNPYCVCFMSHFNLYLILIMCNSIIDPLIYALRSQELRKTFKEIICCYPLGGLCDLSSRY
Chain of D(1A) dopamine receptor (P21728 whole entry): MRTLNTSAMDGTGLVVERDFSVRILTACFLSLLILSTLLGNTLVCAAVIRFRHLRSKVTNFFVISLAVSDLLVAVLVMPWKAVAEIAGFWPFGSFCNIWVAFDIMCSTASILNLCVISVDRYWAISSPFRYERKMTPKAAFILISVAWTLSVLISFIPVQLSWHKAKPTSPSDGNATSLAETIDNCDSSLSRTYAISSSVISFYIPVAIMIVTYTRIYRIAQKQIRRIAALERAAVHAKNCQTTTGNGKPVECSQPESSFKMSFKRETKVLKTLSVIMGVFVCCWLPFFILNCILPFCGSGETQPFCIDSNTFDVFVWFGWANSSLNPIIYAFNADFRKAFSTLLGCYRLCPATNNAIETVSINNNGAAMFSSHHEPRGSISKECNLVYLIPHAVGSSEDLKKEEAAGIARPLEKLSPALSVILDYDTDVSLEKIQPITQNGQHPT
Chain of Mu-type opioid receptor (P35372 whole entry): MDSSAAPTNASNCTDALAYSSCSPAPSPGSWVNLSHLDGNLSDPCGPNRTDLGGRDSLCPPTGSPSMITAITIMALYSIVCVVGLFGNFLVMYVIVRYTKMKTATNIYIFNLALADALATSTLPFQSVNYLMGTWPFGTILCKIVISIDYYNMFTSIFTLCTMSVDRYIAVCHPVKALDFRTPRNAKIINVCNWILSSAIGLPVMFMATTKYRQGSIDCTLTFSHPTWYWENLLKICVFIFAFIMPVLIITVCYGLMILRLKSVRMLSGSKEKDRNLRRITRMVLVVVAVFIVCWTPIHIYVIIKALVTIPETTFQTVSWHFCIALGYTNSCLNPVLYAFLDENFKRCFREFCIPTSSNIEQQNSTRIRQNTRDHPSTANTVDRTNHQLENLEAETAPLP

Usually AC50 stands for the concentration at which the activity in the assay is half-maximal. Turning to `C=CCC1(C(C)CC)C(=O)NC(=O)NC1=O` (centres undefined) [TALBUTAL], the AC50 at Melanocortin receptor 4 is greater than 10 µM; on Mu-type opioid receptor it was greater than 30 µM; in assay [1], greater than 10 µM; in [2] it was greater than 10 µM.
`Clc1ccc(CCCOCCCN2CCCCC2)cc1` [PITOLISANT]: the AC50 (in assay [3]; on Androgen receptor [4]; on Androgen receptor [5]) was greater than 30 µM in each case.
As for `CCC(C(=O)O)c1ccc(N2Cc3ccccc3C2=O)cc1` (centres undefined) [INDOBUFEN], the AC50 was 5.3 µM in assay [3], greater than 30 µM on Androgen receptor [4] and greater than 30 µM on Androgen receptor [5].
With `CC(C)=CCC/C(C)=C/C=C/C(C)=C/C=C/C(C)=C/C=C/C=C(C)/C=C/C=C(C)/C=C/C=C(\C)CCC=C(C)C` [LYCOPENE], the AC50 in [3] is greater than 30 µM; at Androgen receptor [4], greater than 30 µM; at Androgen receptor [5], 24 µM.
For `COc1ccc2c3c1O[C@H]1[C@@H](O)C=C[C@H]4[C@@H](C2)N(C)CC[C@@]341` [CODEINE], the AC50 is greater than 30 µM at Melanocortin receptor 4; greater than 30 µM in assay [3]; greater than 10 µM at D(1A) dopamine receptor; greater than 10 µM in assay [1]; greater than 10 µM in assay [6]; greater than 10 µM in assay [7]. Also, the AC50 in [2] and in [8] was greater than 10 µM in each case.
As to `CCCc1nc(C(C)(C)O)c(C(=O)OCc2oc(=O)oc2C)n1Cc1ccc(-c2ccccc2-c2nnn[nH]2)cc1` [OLMESARTAN MEDOXOMIL], the AC50 on Melanocortin receptor 4 is greater than 50 µM; in assay [3], greater than 30 µM; at D(1A) dopamine receptor, greater than 10 µM; at Mu-type opioid receptor, greater than 10 µM; in assay [1], greater than 10 µM; in assay [6], greater than 10 µM. Besides, the AC50 in [7], in [2] and in [8] was greater than 10 µM in each case.
`COc1ccc2c3c1O[C@H]1C(=O)CC[C@@]4(O)[C@@H](C2)N(C)CC[C@]314` [OXYCODONE]: the AC50 (in assay [3]; on Androgen receptor [4]; on Androgen receptor [5]) was greater than 30 µM each time.
For the compound `CCc1c(Cl)c(O)c(Cl)c(O)c1C(=O)O[C@H]1[C@H](O)[C@H](OC)[C@H](OC/C2=C\C=C\C[C@H](O)/C(C)=C/[C@H](CC)[C@@H](O[C@@H]3OC(C)(C)[C@@H](OC(=O)C(C)C)[C@H](O)[C@@H]3O)/C(C)=C/C(C)=C/C[C@@H]([C@@H](C)O)OC2=O)O[C@@H]1C` [FIDAXOMICIN], the AC50 at Melanocortin receptor 4 is greater than 30 µM; at D(1A) dopamine receptor it was greater than 10 µM; on Androgen receptor [4] it was greater than 30 µM; on Mu-type opioid receptor, greater than 10 µM; in [1] it was greater than 10 µM; in [6], greater than 10 µM. Besides, the AC50 in [7] and in assay [8] was greater than 10 µM each time.
Consider `CC(C(=O)O)c1ccc(N2Cc3ccccc3C2=O)cc1` (centres undefined) [INDOPROFEN], for which the AC50 in [3] is greater than 30 µM; on D(1A) dopamine receptor, greater than 30 µM; on Mu-type opioid receptor, greater than 30 µM; in assay [1] it was greater than 10 µM; in assay [2] it was greater than 30 µM.
In the case of `CN1CCC(=C2c3ccccc3CCc3sccc32)CC1` [PIZOTYLINE], the AC50 at Melanocortin receptor 4 is greater than 30 µM; in assay [3], 3.32 µM; at Mu-type opioid receptor, greater than 10 µM; in assay [1], 0.0002 µM; in [6], 0.577 µM; in assay [8], 0.338 µM.
In the case of `CN1C(=O)C(O)N=C(c2ccccc2Cl)c2cc(Cl)ccc21` (centres undefined) [LORMETAZEPAM], the AC50 (in assay [3]; at Androgen receptor [4]; on Androgen receptor [5]) was greater than 30 µM throughout.
In the case of `C[C@H](N)[C@H](O)c1cccc(O)c1` [METARAMINOL], the AC50 was greater than 10 µM at Melanocortin receptor 4; greater than 30 µM on Mu-type opioid receptor; greater than 10 µM in assay [1]; greater than 30 µM in assay [7]; 30 µM in assay [2].
In the case of `CC(C)(C)c1cc(C(C)(C)C)c(NC(=O)c2c[nH]c3ccccc3c2=O)cc1O` [IVACAFTOR], the AC50 on Melanocortin receptor 4 is 25.6 µM; on D(1A) dopamine receptor, greater than 10 µM; on Mu-type opioid receptor it was greater than 30 µM; in [1], greater than 10 µM; in assay [6] it was greater than 10 µM; in [7] it was greater than 10 µM. The AC50 in assay [2] and in assay [8] was greater than 10 µM each time.
As to `CC(C)OC(=O)CCC/C=C\C[C@@H]1[C@@H](CC[C@@H](O)CCc2ccccc2)[C@H](O)C[C@@H]1O` [LATANOPROST], the AC50 on Androgen receptor [4] and at Androgen receptor [5] was greater than 30 µM each time.
In the case of `CC[C@@H]1C(=O)OC[C@@H]1Cc1cncn1C` [PILOCARPINE], the AC50 on Melanocortin receptor 4 is greater than 30 µM; in assay [3], greater than 30 µM; on Mu-type opioid receptor, greater than 30 µM; in assay [1], 4.72 µM; in assay [6] it was greater than 10 µM; in assay [7], greater than 10 µM. The AC50 in [2] and in assay [8] was greater than 10 µM throughout.
Regarding `Cn1c(=O)c2c(ncn2CC2OCCO2)n(C)c1=O` [DOXOFYLLINE], the AC50 (in assay [3]; at Androgen receptor [4]; at Androgen receptor [5]) was greater than 30 µM throughout.
Take `CCCCc1ncc(/C=C(\Cc2cccs2)C(=O)O)n1Cc1ccc(C(=O)O)cc1` [EPROSARTAN]: the AC50 at Melanocortin receptor 4 was greater than 10 µM; in assay [3], greater than 30 µM; on D(1A) dopamine receptor it was greater than 10 µM; on Mu-type opioid receptor it was greater than 10 µM; in assay [1], greater than 10 µM; in assay [6] it was greater than 10 µM. For the same compound, the AC50 in [7], in [2] and in [8] was greater than 10 µM each time.
On to `Cc1ccc(-n2nccn2)c(C(=O)N2CCN(c3nc4cc(Cl)ccc4o3)CC[C@H]2C)c1` [SUVOREXANT], for which the AC50 (in assay [3]; on Androgen receptor [4]; at Androgen receptor [5]) was greater than 30 µM in each case.
As to `CN1C(=O)C(O)N=C(c2ccccc2)c2cc(Cl)ccc21` (centres undefined) [TEMAZEPAM], the AC50 was greater than 30 µM at Melanocortin receptor 4; greater than 10 µM on D(1A) dopamine receptor; greater than 30 µM on Mu-type opioid receptor; greater than 10 µM in [1]; greater than 10 µM in assay [6]; greater than 10 µM in assay [7]. In addition, the AC50 in [2] and in [8] was greater than 10 µM throughout.
Take `C/C(O)=C(\C#N)C(=O)Nc1ccc(C(F)(F)F)cc1` [TERIFLUNOMIDE]: the AC50 in assay [3] was 21 µM; on Androgen receptor [4], greater than 30 µM; at Mu-type opioid receptor, greater than 30 µM.
